Experimental data from patent US20050239656A1, “Pyridine compounds or salts thereof and herbicides containing the same” (priority 2002, published 2005).

Legend:
barnyardgrass [1] = assay: Test Example 1: foliage treatment, upland pot test; type: in vivo, Echinochloa crus-galli L.; settings: active ingredient 500 g/ha, observed 18th to 23rd day, 0 = non-treated, 100 = complete kill
Procedure, shortened: (§1)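 Sow in upland field soil; grow to leaf stage (barnyardgrass 1.3–2.8, soybean 0.1–0.4, wheat 1.3–2.4, rice 1.2–2.6); spray foliage with compound in water, 500 L/ha, spreader 0.1% (v/v); assess visually at 18–23 d, 0 (as untreated) to 100 (full kill).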

crabgrass [2] = assay: Test Example 1: foliage treatment, upland pot test; type: in vivo, Digitaria sanguinalis L.; settings: active ingredient 500 g/ha, observed 18th to 23rd day, 0 = non-treated, 100 = complete kill
green foxtail [3] = assay: Test Example 1: foliage treatment, upland pot test; type: in vivo, Setaria viridis L.; settings: active ingredient 500 g/ha, observed 18th to 23rd day, 0 = non-treated, 100 = complete kill
redroot pigweed [4] = assay: Test Example 1: foliage treatment, upland pot test; type: in vivo, Amaranthus retroflexus L.; settings: active ingredient 500 g/ha, observed 18th to 23rd day, 0 = non-treated, 100 = complete kill
prickly sida [5] = assay: Test Example 1: foliage treatment, upland pot test; type: in vivo, Sida spinosa L.; settings: active ingredient 500 g/ha, observed 18th to 23rd day, 0 = non-treated, 100 = complete kill
velvetleaf [6] = assay: Test Example 1: foliage treatment, upland pot test; type: in vivo, Abutilon theophrasti MEDIC.; settings: active ingredient 500 g/ha, observed 18th to 23rd day, 0 = non-treated, 100 = complete kill
rice [7] = assay: Test Example 1: foliage treatment, upland pot test; type: in vivo, Oryza sativa L.; settings: crop, active ingredient 500 g/ha, observed 18th to 23rd day, 0 = non-treated, 100 = complete kill
Procedure, shortened: as §1

wheat [8] = assay: Test Example 1: foliage treatment, upland pot test; type: in vivo, Triticum spp.; settings: crop, active ingredient 500 g/ha, observed 18th to 23rd day, 0 = non-treated, 100 = complete kill
From the text: Upland field soil was put into a 1/170,000 ha pot, and seed of various plants were sown. Then, when the plants reached predetermined leaf stages ((1) barnyardgrass: 1.3 to 2.8 leaf stages, (2) crabgrass: 1.0 to 2.8 leaf stages, (3) green foxtail: 1.3 to 2.6 leaf stages, (4) redroot pigweed: 0.1 to 1.2 leaf stages, (5) prickly sida: 0.1 to 1.2 leaf stages, (6) velvetleaf: 0.1 to 1.2 leaf stages, (7) tall morningglory: 0.1 to 1.5 leaf stages, (8) rice: 1.2 to 2.6 leaf stages, (9) wheat: 1.3 to 2.4 leaf stages, (10) corn, 2.1 to 3.2 leaf stages, (11) soybean: 0.1 to 0.4 leaf stage), a wettable powder or emulsifiable concentrate having the compound of the present invention formulated in accordance with a usual formulation method, was weighed so that the active ingredient would be a predetermined amount, and diluted with water in an amount of 500 L/ha. To the diluted solution, 0.1% (v/v) of agricultural spreader was added. The herbicide thus adjusted was applied by a small size sprayer for foliage treatment. On the 18th to 23rd days after the application of the herbicide, the growth of the respective plants was visually observed, and the herbicidal effects were evaluated by the growth controlling degrees (%) ranging from 0 (equivalent to the non-treated plot) to 100 (complete kill), whereby the results shown in Table 3, were obtained.

corn [9] = assay: Test Example 1: foliage treatment, upland pot test; type: in vivo, Zea mays L.; settings: crop, active ingredient 500 g/ha, observed 18th to 23rd day, 0 = non-treated, 100 = complete kill
Procedure, shortened: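 Corn seeds were sown in upland field soil held in a 1/170,000 ha pot and grown to the 2.1 to 3.2 leaf stage. A wettable powder or emulsifiable concentrate of the test compound was diluted with water at 500 L/ha, given 0.1% (v/v) agricultural spreader, and sprayed onto the foliage with a small sprayer. Growth controlling degree (%) was scored visually 18th to 23rd days later, from 0 (non-treated) to 100 (complete kill).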

soybean [10] = assay: Test Example 1: foliage treatment, upland pot test; type: in vivo, Glycine max Merr.; settings: crop, active ingredient 500 g/ha, observed 18th to 23rd day, 0 = non-treated, 100 = complete kill
Procedure, shortened: as §1

barnyardgrass [11] = assay: Test Example 2: soil surface treatment, upland pot test; type: in vivo, Echinochloa crus-galli L.; settings: observed 20th to 28th day
Procedure, shortened: (§2)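 In this pre-emergence upland pot test, a small sprayer delivered the diluted compound formulation (1,500 L/ha water) to the soil surface the day after seeding. Plants were then observed, and control was scored from 0 to 100% some 20–28 days after treatment.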

crabgrass [12] = assay: as above; type: in vivo, Digitaria sanguinalis L.; settings: observed 20th to 28th day
Procedure, shortened: as §2

green foxtail [13] = assay: as above; type: in vivo, Setaria viridis L.; settings: observed 20th to 28th day
Procedure, shortened: as §2

redroot pigweed [14] = assay: as above; type: in vivo, Amaranthus retroflexus L.; settings: observed 20th to 28th day
Procedure, shortened: as §2

prickly sida [15] = assay: as above; type: in vivo, Sida spinosa L.; settings: observed 20th to 28th day
Procedure, shortened: as §2

velvetleaf [16] = assay: as above; type: in vivo, Abutilon theophrasti MEDIC.; settings: observed 20th to 28th day
Procedure, shortened: as §2

rice [17] = assay: as above; type: in vivo, Oryza sativa L.; settings: observed 20th to 28th day
Procedure, shortened: as §2

corn [18] = assay: as above; type: in vivo, Zea mays L.; settings: observed 20th to 28th day
Procedure, shortened: as §2

soybean [19] = assay: as above; type: in vivo, Glycine max Merr.; settings: observed 20th to 28th day
Procedure, shortened: as §2

barnyardgrass [20] = assay: Test Example 3: paddy pot test, application under submerged conditions; type: in vivo, Echinochloa crus-galli L.; settings: active ingredient 500 g/ha; submerged application at 0.5 leaf stage; visually observed 14 days after application; 0 = non-treated, 100 = complete kill
Procedure, shortened: (§3)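 Paddy soil pots; seeds sown, lightly covered; flooded 0.5–1 cm in greenhouse; wapato tubers planted day 1–2; flood raised to 3–4 cm. Submerged pipette application at 0.5 leaf / primary leaf stage. Visual score day 14, 0–100%.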

japanese bulrush = assay: as above; type: in vivo, Scirpus juncoides; settings: active ingredient 500 g/ha; submerged application at 0.5 leaf stage; visually observed 14 days after application; 0 = non-treated, 100 = complete kill
Procedure, shortened: as §3

rice (var. Nihonbare) = assay: Test Example 3: paddy pot test, transplanted rice; type: in vivo, Oryza sativa L.; settings: active ingredient 500 g/ha, applied 4th day after transplantation, visually observed 21st day after application, 0 = non-treated, 100 = complete kill
Procedure, shortened: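 Visual crop-injury rating (0 = as untreated, 100 = complete kill, %) taken 21 days post-application. Treatment: formulated compound, water-diluted, pipetted into 3–4 cm flood water at a preset active-ingredient dose, 4 days after transplanting 2-leaf Nihonbare rice 3 cm deep in puddled paddy soil.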

wheat [21] = assay: Test Example 2: soil surface treatment, upland pot test; type: in vivo, Triticum spp.; settings: observed 20th to 28th day
Procedure, shortened: as §2

japanese ribbon wapato = assay: Test Example 3: paddy pot test, application under submerged conditions; type: in vivo, Sagittaria pygniaea; settings: active ingredient 500 g/ha; submerged application at primary leaf stage; visually observed 14 days after application; 0 = non-treated, 100 = complete kill
Procedure, shortened: as §3

CON=Cc1ccc(CC(=O)N(C)C(c2cnccc2C(F)(F)F)C(C)C)cc1 (racemic) [I-122]
Growth controlling degree (%) Barnyardgrass (barnyardgrass [1]): 80%
Growth controlling degree (%) Crabgrass (crabgrass [2]): 95%
Growth controlling degree (%) Green foxtail (green foxtail [3]): 60%
Growth controlling degree (%) Redroot pigweed (redroot pigweed [4]): 70%
Growth controlling degree (%) Prickly sida (prickly sida [5]): 80%
Growth controlling degree (%) Velvetleaf (velvetleaf [6]): 70%
Growth controlling degree (%) Rice (rice [7]): 10%
Growth controlling degree (%) wheat (wheat [8]): 0%
Growth controlling degree (%) Corn (corn [9]): 80%
Growth controlling degree (%) Soybean (soybean [10]): 80%
Growth controlling degree (%) Barnyardgrass (barnyardgrass [11]; active ingredient 500 g/ha): 98%
Growth controlling degree (%) Crabgrass (crabgrass [12]; active ingredient 500 g/ha): 100%
Growth controlling degree (%) Green foxtail (green foxtail [13]; active ingredient 500 g/ha): 100%
Growth controlling degree (%) Redroot pigweed (redroot pigweed [14]; active ingredient 500 g/ha): 60%
Growth controlling degree (%) Prickly sida (prickly sida [15]; active ingredient 500 g/ha): 50%
Growth controlling degree (%) Velvetleaf (velvetleaf [16]; active ingredient 500 g/ha): 30%
Growth controlling degree (%) Rice (rice [17]; active ingredient 500 g/ha): 20%
Growth controlling degree (%) Corn (corn [18]; active ingredient 500 g/ha): 10%
Growth controlling degree (%) Soyabean (soybean [19]; active ingredient 500 g/ha): 10%
Growth controlling degree (%) Barnyardgrass (barnyardgrass [20]): 98%
Growth controlling degree (%) Japanese bulrush (japanese bulrush): 100%
Growth controlling degree (%) Rice (rice (var. Nihonbare)): 10%

CN(C(=O)Cc1ccccc1)C(c1cnccc1C(F)(F)F)c1cccc2ccccc12 (centres unmarked) [Compound I-47]
Growth controlling degree (%) Barnyardgrass (barnyardgrass [11]; active ingredient 2000 g/ha): 60%
Growth controlling degree (%) Crabgrass (crabgrass [12]; active ingredient 2000 g/ha): 90%
Growth controlling degree (%) Green foxtail (green foxtail [13]; active ingredient 2000 g/ha): 80%
Growth controlling degree (%) Redroot pigweed (redroot pigweed [14]; active ingredient 2000 g/ha): 0%
Growth controlling degree (%) Prickly sida (prickly sida [15]; active ingredient 2000 g/ha): 40%
Growth controlling degree (%) Velvetleaf (velvetleaf [16]; active ingredient 2000 g/ha): 20%
Growth controlling degree (%) Rice (rice [17]; active ingredient 2000 g/ha): 0%
Growth controlling degree (%) wheat (wheat [21]; active ingredient 2000 g/ha): 20%
Growth controlling degree (%) Corn (corn [18]; active ingredient 2000 g/ha): 10%
Growth controlling degree (%) Soyabean (soybean [19]; active ingredient 2000 g/ha): 10%
Growth controlling degree (%) Barnyardgrass (barnyardgrass [20]): 98%
Growth controlling degree (%) Japanese bulrush (japanese bulrush): 30%
Growth controlling degree (%) Japanese ribbon wapato (japanese ribbon wapato): 0%
Growth controlling degree (%) Rice (rice (var. Nihonbare)): 10%

CC(C(=O)NC(c1cnccc1C(F)(F)F)C(C)C)c1ccccc1 (centres unmarked) [Compound I-11]
Growth controlling degree (%) Barnyardgrass (barnyardgrass [11]; active ingredient 1000 g/ha, 0 = non-treated, 100 = complete kill): 98%
Growth controlling degree (%) Crabgrass (crabgrass [12]; active ingredient 1000 g/ha): 90%
Growth controlling degree (%) Green foxtail (green foxtail [13]; active ingredient 1000 g/ha): 90%
Growth controlling degree (%) Redroot pigweed (redroot pigweed [14]; active ingredient 1000 g/ha): 0%
Growth controlling degree (%) Prickly sida (prickly sida [15]; active ingredient 1000 g/ha): 0%
Growth controlling degree (%) Velvetleaf (velvetleaf [16]; active ingredient 1000 g/ha): 0%
Growth controlling degree (%) Rice (rice [17]; active ingredient 1000 g/ha): 0%
Growth controlling degree (%) wheat (wheat [21]; active ingredient 1000 g/ha): 50%
Growth controlling degree (%) Corn (corn [18]; active ingredient 1000 g/ha): 10%
Growth controlling degree (%) Soyabean (soybean [19]; active ingredient 1000 g/ha): 0%
Growth controlling degree (%) Barnyardgrass (barnyardgrass [20]): 60%
Growth controlling degree (%) Japanese bulrush (japanese bulrush): 90%
Growth controlling degree (%) Japanese ribbon wapato (japanese ribbon wapato): 30%
Growth controlling degree (%) Rice (rice (var. Nihonbare)): 10%
